Assay results taken from US20260042731A1, “(2,4-DICHLOROPHENOXY)ACETIC ACID ANALOGS” (CORTEVA AGRISCIENCE LLC, priority 2022, published 2026).
Like-named read-outs stand apart in the source and are kept apart here.

Columns and labels:
[1] = test system: weeds (ABUTH, AMATA, AMBEL, CHEAL, ERICA); experiment: Postemergence herbicide evaluation, overall average % weed control across ABUTH, AMATA, AMBEL, CHEAL, ERICA; type: in vivo; conditions: post-emergence, average over the five weeds, read-out: Overall Ave % Weed Control; for pest or weed control at 280 g/ha: 280 g ae/ha; for pest or weed control at 560 g/ha: 560 g ae/ha
[2] = Volatility of compounds measured by thermogravimetric analysis (TGA); type: physicochemical
[3] = test system: Ambrosia artemisiifolia (AMBEL), common ragweed; experiment: Postemergence herbicide evaluation, growth of Ambrosia artemisiifolia (AMBEL); type: in vivo; conditions: Ambrosia artemisiifolia, post-emergence, percent reduction in plant size relative to untreated control, read-out: AVE. AMBEL; for pest or weed control at 280 g/ha: 280 g ae/ha; for pest or weed control at 560 g/ha: 560 g ae/ha
[4] = test system: Chenopodium album (CHEAL), common lambsquarters; experiment: Postemergence herbicide evaluation, growth of Chenopodium album (CHEAL); type: in vivo; conditions: Chenopodium album, post-emergence, percent reduction in plant size relative to untreated control, read-out: Ave. CHEAL; for pest or weed control at 280 g/ha: 280 g ae/ha; for pest or weed control at 560 g/ha: 560 g ae/ha
[5] = test system: Amaranthus rudis (AMATA), tall water hemp; experiment: Postemergence herbicide evaluation, growth of Amaranthus rudis (AMATA); type: in vivo; conditions: Amaranthus tuberculatus, post-emergence, percent reduction in plant size relative to untreated control, read-out: Ave. AMATA; for pest or weed control at 280 g/ha: 280 g ae/ha; for pest or weed control at 560 g/ha: 560 g ae/ha
[6] = test system: Abutilon theophrasti (ABUTH), velvetleaf; experiment: Postemergence herbicide evaluation, growth of Abutilon theophrasti (ABUTH); type: in vivo; conditions: Abutilon theophrasti, post-emergence, percent reduction in plant size relative to untreated control, read-out: AVE. ABUTH; for pest or weed control at 280 g/ha: 280 g ae/ha; for pest or weed control at 560 g/ha: 560 g ae/ha
[7] = test system: glyphosate resistant Conyza canadensis (L.) (ERICA), horseweed; experiment: Postemergence herbicide evaluation, growth of Conyza canadensis (ERICA); type: in vivo; conditions: Erigeron canadensis, post-emergence, percent reduction in plant size relative to untreated control, read-out: Ave. ERICA; for pest or weed control at 280 g/ha: 280 g ae/ha; for pest or weed control at 560 g/ha: 560 g ae/ha

| Compound | pest or weed control at 280 g/ha ([1]; 168 h, 7 DAA) [%] | pest or weed control at 560 g/ha ([1]; 168 h, 7 DAA) [%] | pest or weed control at 280 g/ha ([1]; 336 h, 14 DAA) [%] | pest or weed control at 560 g/ha ([1]; 336 h, 14 DAA) [%] | pest or weed control at 280 g/ha ([1]; 504 h, 21 DAA) [%] | pest or weed control at 560 g/ha ([1]; 504 h, 21 DAA) [%] | pest or weed control at 280 g/ha ([3]; 168 h, 7 DAA) [%] | pest or weed control at 560 g/ha ([3]; 168 h, 7 DAA) [%] | pest or weed control at 280 g/ha ([3]; 336 h, 14 DAA) [%] | pest or weed control at 560 g/ha ([3]; 336 h, 14 DAA) [%] | pest or weed control at 280 g/ha ([3]; 504 h, 21 DAA) [%] | pest or weed control at 560 g/ha ([3]; 504 h, 21 DAA) [%] | pest or weed control at 280 g/ha ([4]; 168 h, 7 DAA) [%] | pest or weed control at 560 g/ha ([4]; 168 h, 7 DAA) [%] | pest or weed control at 280 g/ha ([4]; 336 h, 14 DAA) [%] | pest or weed control at 560 g/ha ([4]; 336 h, 14 DAA) [%] | pest or weed control at 280 g/ha ([4]; 504 h, 21 DAA) [%] | pest or weed control at 560 g/ha ([4]; 504 h, 21 DAA) [%] | pest or weed control at 280 g/ha ([5]; 168 h, 7 DAA) [%] | pest or weed control at 560 g/ha ([5]; 168 h, 7 DAA) [%] | further results |
| --- | --- | --- | --- | --- | --- | --- | --- | --- | --- | --- | --- | --- | --- | --- | --- | --- | --- | --- | --- | --- | --- |
| C/C(N)=N/OC(=O)COc1ccc(Cl)cc1Cl [Compound A12, N′-(2-(2,4-Dichlorophenoxy)acetoxy)acetimidamide] | 72 | 76 | 88 | 89 | 93 | 92 | 65 | 75 | 83 | 96 | 97 | 99 | 68 | 68 | 80 | 78 | 86 | 80 | 75 | 78 | TGA Data (rate of weight loss, volatility) [2]: 5.8 µg/min; pest or weed control at 280 g/ha ([5]; 336 h, 14 DAA): 97%; pest or weed control at 560 g/ha ([5]; 336 h, 14 DAA): 83%; pest or weed control at 280 g/ha ([5]; 504 h, 21 DAA): 86%; pest or weed control at 560 g/ha ([5]; 504 h, 21 DAA): 88%; pest or weed control at 280 g/ha ([6]; 168 h, 7 DAA): 85%; pest or weed control at 560 g/ha ([6]; 168 h, 7 DAA): 93%; pest or weed control at 280 g/ha ([6]; 336 h, 14 DAA): 90%; pest or weed control at 560 g/ha ([6]; 336 h, 14 DAA): 97%; pest or weed control at 280 g/ha ([6]; 504 h, 21 DAA): 96%; pest or weed control at 560 g/ha ([6]; 504 h, 21 DAA): 99%; pest or weed control at 280 g/ha ([7]; 168 h, 7 DAA): 65%; pest or weed control at 560 g/ha ([7]; 168 h, 7 DAA): 68%; pest or weed control at 280 g/ha ([7]; 336 h, 14 DAA): 90%; pest or weed control at 560 g/ha ([7]; 336 h, 14 DAA): 91%; pest or weed control at 280 g/ha ([7]; 504 h, 21 DAA): 99%; pest or weed control at 560 g/ha ([7]; 504 h, 21 DAA): 97% |
| O=C(Cc1ccccc1)NOC(=O)COc1ccc(Cl)cc1Cl [Compound A13, N-(2-(2,4-dichlorophenoxy)acetoxy)-2-phenylacetamide] | 67 | 70 | 76 | 85 | 82 | 90 | 65 | 70 | 85 | 94 | 90 | 97 | 68 | 65 | 68 | 78 | 73 | 91 | 75 | 70 | TGA Data (rate of weight loss, volatility) [2]: 1.2 µg/min; pest or weed control at 280 g/ha ([5]; 336 h, 14 DAA): 80%; pest or weed control at 560 g/ha ([5]; 336 h, 14 DAA): 74%; pest or weed control at 280 g/ha ([5]; 504 h, 21 DAA): 91%; pest or weed control at 560 g/ha ([5]; 504 h, 21 DAA): 70%; pest or weed control at 280 g/ha ([6]; 168 h, 7 DAA): 68%; pest or weed control at 560 g/ha ([6]; 168 h, 7 DAA): 80%; pest or weed control at 280 g/ha ([6]; 336 h, 14 DAA): 70%; pest or weed control at 560 g/ha ([6]; 336 h, 14 DAA): 85%; pest or weed control at 280 g/ha ([6]; 504 h, 21 DAA): 75%; pest or weed control at 560 g/ha ([6]; 504 h, 21 DAA): 93%; pest or weed control at 280 g/ha ([7]; 168 h, 7 DAA): 60%; pest or weed control at 560 g/ha ([7]; 168 h, 7 DAA): 65%; pest or weed control at 280 g/ha ([7]; 336 h, 14 DAA): 78%; pest or weed control at 560 g/ha ([7]; 336 h, 14 DAA): 97%; pest or weed control at 280 g/ha ([7]; 504 h, 21 DAA): 83%; pest or weed control at 560 g/ha ([7]; 504 h, 21 DAA): 99% |
| O=C(COc1ccc(Cl)cc1Cl)ON(Cc1ccccc1)Cc1ccccc1 [Compound A14, N, N-Dibenzyl-O-(2-(2,4-dichlorophenoxy)acetyl)hydroxylamine] | 51 | 44 | 51 | 46 | 47 | 39 | 50 | 40 | 63 | 50 | 58 | 33 | 60 | 58 | 68 | 63 | 70 | 63 | 63 | 55 | TGA Data (rate of weight loss, volatility) ([2]; 70° C.): 0.4 (70° C.) μg/min; pest or weed control at 280 g/ha ([5]; 336 h, 14 DAA): 50%; pest or weed control at 560 g/ha ([5]; 336 h, 14 DAA): 48%; pest or weed control at 280 g/ha ([5]; 504 h, 21 DAA): 53%; pest or weed control at 560 g/ha ([5]; 504 h, 21 DAA): 43%; pest or weed control at 280 g/ha ([6]; 168 h, 7 DAA): 38%; pest or weed control at 560 g/ha ([6]; 168 h, 7 DAA): 28%; pest or weed control at 280 g/ha ([6]; 336 h, 14 DAA): 23%; pest or weed control at 560 g/ha ([6]; 336 h, 14 DAA): 20%; pest or weed control at 280 g/ha ([6]; 504 h, 21 DAA): 13%; pest or weed control at 560 g/ha ([6]; 504 h, 21 DAA): 15%; pest or weed control at 280 g/ha ([7]; 168 h, 7 DAA): 43%; pest or weed control at 560 g/ha ([7]; 168 h, 7 DAA): 40%; pest or weed control at 280 g/ha ([7]; 336 h, 14 DAA): 50%; pest or weed control at 560 g/ha ([7]; 336 h, 14 DAA): 50%; pest or weed control at 280 g/ha ([7]; 504 h, 21 DAA): 43%; pest or weed control at 560 g/ha ([7]; 504 h, 21 DAA): 40% |
